Measurements from patent publication US12593845B2 (priority 2019, dated 2026).

Key:
[1] = system: apple scab pathogen (Venturia inaequalis); assay: Apple scab control test; assay type: in vivo; settings: 336 h, 125 ppm drug solution sprayed onto apple seedlings (Orin), lesion area ratio 2 weeks after inoculation
Procedure: 5 parts by weight of the dihydropyrimidine compound of the present invention, 93.5 parts by weight of N,N-dimethylformamide, and 1.5 parts by weight of polyoxyethylene sorbitan monolaurate (TWEEN® 20) were mixed and dissolved to obtain an emulsion (I) including 5% of an active ingredient.
The control value was calculated by the following expression. Control value (%)=100−{lesion area ratio in treated group/lesion area ratio in untreated group}×100 [Expression 1]
Water was added to the emulsion (I) such that the concentration of the dihydropyrimidine compound reached 125 ppm to dissolve the emulsion, and a drug solution was obtained. Subsequently, the drug solution was sprayed onto apple seedlings (variety: “Orin”, leaf stage: 3 to 4) cultivated in seedling pots. After air drying, the seedlings were inoculated with conidiospores of an apple scab pathogen (Venturia inaequalis) (treated group). As a control, apple seedlings that were not sprayed with the drug solution were inoculated in the same manner (untreated group). The seedlings were left to stand in a humidified room at 20° C. using a 12 hour light/dark cycle.
On the day 2 weeks after the inoculation, the leaves of the apple seedlings were visually observed to determine the lesion area ratio, and the control value was calculated.

[2] = system: Aspergillus niger; assay: Antimicrobial test against Aspergillus niger; assay type: cell-based; settings: 96 h, Vogel medium, 25° C., 4 days in the dark, turbidity at 405 nm, read-out: growth inhibition rate
Procedure: Spores of Aspergillus niger were added to and dispersed in a Vogel medium, and a dihydropyrimidine compound dissolved in dimethyl sulfoxide was added and mixed thereto at 25 ppm. The resulting solution was dispensed onto a 96-well microplate and cultivated in the dark at 25° C. for 4 days.
After the cultivation, the turbidity at a wavelength of 405 nm was measured by a microplate reader and compared with that in the untreated case to determine the growth inhibition of Aspergillus niger (%) was determined.

SMILES: CCOC(=O)C(C)(C)Cn1c(=O)c(/C(C)=N/OC(C)C)cn(CC(=O)c2cc(F)ccc2OC)c1=O [A-3]
- pest or weed control at 125 ppm [1]: ≥ 75%

SMILES: C=CCON=Cc1cn(CC(OCCC#N)c2cc(F)ccc2OC)c(=O)n(C(C)C(=O)NC(C)C)c1=O (stereo not drawn) [A-5]
- pest or weed control at 125 ppm [1]: ≥ 75%

SMILES: CON=Cc1cn(CC(OCCC#N)c2cc(F)ccc2OC)c(=O)n(C(C)C(=O)NC(C)C)c1=O (stereo not drawn) [A-6]
- pest or weed control at 125 ppm [1]: ≥ 75%

SMILES: CCON=Cc1cn(CC(O)c2cc(F)ccc2OC)c(=O)n(CC(C)(C)C(=O)NC(C)C)c1=O (stereo not drawn) [A-8]
- pest or weed control at 125 ppm [1]: ≥ 75%

SMILES: COc1ccc(F)cc1C(Cn1cc(C=NOCC2CC2)c(=O)n(C(C)C(=O)NC(C)C)c1=O)OCCC#N (stereo not drawn) [A-9]
- pest or weed control at 125 ppm [1]: ≥ 75%

SMILES: CCON=Cc1cn(CC(OCCC#N)c2cc(F)ccc2OC)c(=O)n(CC(C)(C)C(=O)OCC)c1=O (stereo not drawn) [A-13]
- pest or weed control at 125 ppm [1]: ≥ 75%

SMILES: CCON=Cc1cn(CC(O)c2cc(F)ccc2OC)c(=O)n(CC(C)(C)C(=O)OCC)c1=O (stereo not drawn) [A-15]
- pest or weed control at 125 ppm [1]: ≥ 75%

SMILES: CCON=Cc1cn(CC(OCCC#N)c2cc(F)ccc2OC)c(=O)n(CCNC(=O)c2ccc(F)cc2)c1=O (stereo not drawn) [A-16]
- pest or weed control at 125 ppm [1]: ≥ 75%

SMILES: CCON=Cc1cn(CC(O)c2cc(F)ccc2OC)c(=O)n(CCNC(=O)OC(C)(C)C)c1=O (stereo not drawn) [A-19]
- pest or weed control at 125 ppm [1]: ≥ 75%

SMILES: CCON=Cc1cn(CC(=O)c2cc(F)ccc2OC)c(=O)n(CCNC(=O)OC(C)(C)C)c1=O [A-20]
- pest or weed control at 125 ppm [1]: ≥ 75%

SMILES: C#CCON=Cc1cn(CC(OCCC#N)c2cc(F)ccc2OC)c(=O)n(C(C)C(=O)NC(C)C)c1=O (stereo not drawn) [A-21]
- pest or weed control at 125 ppm [1]: ≥ 75%

SMILES: COc1ccc(F)cc1C(Cn1cc(C=NOCC(F)(F)F)c(=O)n(C(C)C(=O)NC(C)C)c1=O)OCCC#N (stereo not drawn) [A-22]
- pest or weed control at 125 ppm [1]: ≥ 75%

SMILES: CCO/N=C(\C)c1cn(CC(=O)c2cc(F)ccc2OC)c(=O)n(CC(C)(C)C(=O)NC(C)C)c1=O [A-26]
- pest or weed control at 125 ppm [1]: ≥ 75%

SMILES: CCO/N=C(\C)c1cn(CC(=O)c2cc(F)ccc2OC)c(=O)n(CCNC(=O)C(C)C)c1=O [A-36, N-(2-(5-(1-(ethoxyimino)ethyl)-3-(2-(5-fluoro-2-methoxyphenyl)-2-oxoethyl)-2,6-dioxo-3,6-dihydropyrimidin-1(2H)-yl)ethyl)isobutyramide]
- pest or weed control at 125 ppm [1]: ≥ 75%

SMILES: COc1cccc(C(O)Cn2cc(/C(C)=N/OC(C)C)c(=O)n(C[C@H](C)NC(=O)C(C)C)c2=O)c1 (stereo partly drawn) [A-40]
- pest or weed control at 125 ppm [1]: ≥ 75%

SMILES: CCO/N=C(\C)c1cn(/C=C(\OC(=O)C(C)C)c2cc(F)ccc2OC)c(=O)n(C2CCCC2NC(=O)C(C)C)c1=O (stereo not drawn) [A-44]
- pest or weed control at 125 ppm [1]: ≥ 75%

SMILES: COc1ccc(F)cc1C(Cn1cc(C=NOC(C)C)c(=O)n(C(C)C(=O)N2CCSCC2)c1=O)OCCC#N (stereo not drawn) [A-67]
- pest or weed control at 125 ppm [1]: ≥ 75%

SMILES: COc1ccc(F)cc1C(O)Cn1cc(C=NOC(C)C)c(=O)n(C(C)C(=O)N2CCSCC2)c1=O (stereo not drawn) [A-72]
- pest or weed control at 125 ppm [1]: ≥ 75%

SMILES: COc1ccc(F)cc1C(O)Cn1cc(/C=N\OC(C)C)c(=O)n(CC(=O)N2CCCCC2)c1=O (stereo not drawn) [A-83]
- pest or weed control at 125 ppm [1]: ≥ 75%

SMILES: COc1ccc(F)cc1C(O)Cn1cc(C=NOC(C)C)c(=O)n(CC(=O)NC(C)C)c1=O (stereo not drawn) [A-85]
- pest or weed control at 125 ppm [1]: ≥ 75%

SMILES: COc1ccc(F)cc1C(O)Cn1cc(C=NOC(C)C)c(=O)n(C(C)C(=O)NC2CC2)c1=O (stereo not drawn) [A-87]
- pest or weed control at 125 ppm [1]: ≥ 75%

SMILES: COc1ccc(F)cc1C(Cn1cc(C=NOC(C)(C)C)c(=O)n(C(C)C(=O)NC(C)C)c1=O)OCCC#N (stereo not drawn) [A-98]
- pest or weed control at 125 ppm [1]: ≥ 75%

SMILES: CCON=Cc1cn(CCc2ccccc2OC)c(=O)n(C(C)C(=O)OCC)c1=O (stereo not drawn) [A-103]
- pest or weed control at 125 ppm [1]: ≥ 75%

SMILES: COc1ccccc1C(O)Cn1cc(/C(C)=N/OC(C)C)c(=O)n(C[C@H](CC(C)C)NC(=O)C(C)C)c1=O (stereo partly drawn) [C-43]
- inhibition at 25 ppm [2]: ≥ 50%

SMILES: CC[C@@H](Cn1c(=O)c(/C(C)=N/OC(C)C)cn(CC(O)c2cc(F)ccc2OC)c1=O)NC(=O)C(C)(C)C (stereo partly drawn) [C-58]
- inhibition at 25 ppm [2]: ≥ 50%

SMILES: COc1ccc(F)cc1C(O)Cn1cc(/C(C)=N/OC(C)C)c(=O)n(C[C@H](CC(C)C)NC(=O)N(C)C)c1=O (stereo partly drawn) [C-60]
- inhibition at 25 ppm [2]: ≥ 50%

SMILES: CCC(=O)N[C@@H](CC(C)C)Cn1c(=O)c(/C(C)=N/OC(C)C)cn(CC(O)c2cc(F)ccc2OC)c1=O (stereo partly drawn) [C-62]
- inhibition at 25 ppm [2]: ≥ 50%

SMILES: COc1ccc(F)cc1C(O)Cn1cc(/C(C)=N/OC(C)C)c(=O)n(C[C@@H](NC(=S)N(C)C)C(C)C)c1=O (stereo partly drawn) [C-63]
- inhibition at 25 ppm [2]: ≥ 50%

SMILES: COc1ccc(F)cc1C(O)Cn1cc(/C(C)=N/OC(C)C)c(=O)n(C[C@@H](NC(=O)N(C)C)C(C)C)c1=O (stereo partly drawn) [C-69]
- inhibition at 25 ppm [2]: ≥ 50%

SMILES: COc1ccc(F)cc1C(O)Cn1cc(/C(C)=N/OC(C)C)c(=O)n(C[C@@H](NC(=O)CSC)C(C)C)c1=O (stereo partly drawn) [C-75]
- inhibition at 25 ppm [2]: ≥ 50%

SMILES: COc1ccccc1C(O)Cn1cc(/C(C)=N/OC(C)C)c(=O)n(C[C@@H](NC(=O)N(C)C)C(C)C)c1=O (stereo partly drawn) [C-77]
- inhibition at 25 ppm [2]: ≥ 50%

SMILES: COc1ccccc1C(O)Cn1cc(/C(C)=N/OC(C)C)c(=O)n(C[C@@H](NC(=O)C2CCC2)C(C)C)c1=O (stereo partly drawn) [C-79]
- inhibition at 25 ppm [2]: ≥ 50%

SMILES: COc1ccc(F)cc1C(O)Cn1cc(/C(C)=N/OC(C)C)c(=O)n(C[C@@H](NC(=O)C(Cl)Cl)C(C)C)c1=O (stereo partly drawn) [C-81]
- inhibition at 25 ppm [2]: ≥ 50%

SMILES: COc1ccc(F)cc1C(O)Cn1cc(/C(C)=N/OC(C)C)c(=O)n(C[C@@H](NC(=O)C2CC2)C(C)C)c1=O (stereo partly drawn) [C-103]
- inhibition at 25 ppm [2]: ≥ 50%

SMILES: C=CC(=O)N[C@H](Cn1c(=O)c(/C(C)=N/OC(C)C)cn(CC(O)c2cc(F)ccc2OC)c1=O)C(C)C (stereo partly drawn) [C-109]
- inhibition at 25 ppm [2]: ≥ 50%

SMILES: COc1ccc(F)cc1C(O)Cn1cc(/C(C)=N/OC(C)C)c(=O)n(C[C@H](C)NC(=O)CC(C)C)c1=O (stereo partly drawn) [C-124]
- inhibition at 25 ppm [2]: ≥ 50%

SMILES: COc1ccc(F)cc1C(O)Cn1cc(/C(C)=N/OC(C)C)c(=O)n(C[C@H](C)NC(=O)C(C)(C)C)c1=O (stereo partly drawn) [C-126]
- inhibition at 25 ppm [2]: ≥ 50%

SMILES: COc1ccccc1C(O)Cn1cc(/C(C)=N/OC(C)C)c(=O)n(C[C@@H](NC(=O)C(C)(C)C)C(C)C)c1=O (stereo partly drawn) [C-129]
- inhibition at 25 ppm [2]: ≥ 50%

SMILES: CCC(=O)N[C@@H](C)Cn1c(=O)c(/C(C)=N/OC(C)C)cn(CC(O)c2cc(F)ccc2OC)c1=O (stereo partly drawn) [C-137]
- inhibition at 25 ppm [2]: ≥ 50%

SMILES: COc1ccc(F)cc1C(O)Cn1cc(/C(C)=N/OC(C)C)c(=O)n(C[C@H](C)NC(=O)C2CC2)c1=O (stereo partly drawn) [C-141]
- inhibition at 25 ppm [2]: ≥ 50%

SMILES: COc1ccc(F)cc1C(O)Cn1cc(/C(C)=N/OC(C)C)c(=O)n(C[C@H](Cc2ccccc2)NC(=O)C(C)C)c1=O (stereo partly drawn) [C-168]
- inhibition at 25 ppm [2]: ≥ 50%

SMILES: CC/C(=N\OC(C)C)c1cn(CC(O)c2cc(F)ccc2OC)c(=O)n(C[C@H](C)NC(=O)C(C)C)c1=O (stereo partly drawn) [C-172]
- inhibition at 25 ppm [2]: ≥ 50%

SMILES: COC(=O)N[C@@H](C)Cn1c(=O)c(/C(C)=N/OC(C)C)cn(CC(O)c2cc(F)ccc2OC)c1=O (stereo partly drawn) [C-186]
- inhibition at 25 ppm [2]: ≥ 50%

SMILES: COc1ccc(F)cc1C(O)Cn1cc(/C(C)=N/OC(C)C)c(=O)n(C[C@H](C)NC(=O)OC(C)C)c1=O (stereo partly drawn) [C-188]
- inhibition at 25 ppm [2]: ≥ 50%

SMILES: C/C(=N\OC(C)C)c1cn(CC(O)c2ccccc2OC(F)(F)F)c(=O)n(C[C@H](C)NC(=O)C(C)C)c1=O (stereo partly drawn) [C-194, N-((2S)-1-(3-(2-hydroxy-2-(2-(trifluoromethoxy)phenyl)ethyl)-5-((E)-1-(isopropoxyimino)ethyl)-2,6-dioxo-3,6-dihydropyrimidin-1(2H)-yl)propan-2-yl)isobutyramide]
- inhibition at 25 ppm [2]: ≥ 50%

SMILES: COc1ccc(F)cc1C(O)Cn1cc(/C(C)=N/OC(C)C)c(=O)n(C[C@@H](NC(=O)C(C)C)c2ccccc2)c1=O (stereo partly drawn) [C-202]
- inhibition at 25 ppm [2]: ≥ 50%

SMILES: C/C(=N\OC(C)C)c1cn(CC(O)c2ccccc2C)c(=O)n(C[C@H](C)NC(=O)C(C)C)c1=O (stereo partly drawn) [C-213]
- inhibition at 25 ppm [2]: ≥ 50%

SMILES: C=C(C)C(=O)N1CCC[C@H]1Cn1c(=O)c(/C(C)=N/OC(C)C)cn(CC(O)c2cc(F)ccc2OC)c1=O (stereo partly drawn) [D-11]
- inhibition at 25 ppm [2]: ≥ 50%

SMILES: COc1ccc(F)cc1C(O)Cn1cc(/C(C)=N/OC(C)C)c(=O)n(C[C@@H]2CCCN2C(=O)C(C)C)c1=O (stereo partly drawn) [D-20]
- inhibition at 25 ppm [2]: ≥ 50%

SMILES: COc1ccc(F)cc1C(O)Cn1cc(/C(C)=N/OC(C)C)c(=O)n(C[C@@H]2CCCN2C(=O)N(C)C)c1=O (stereo partly drawn) [D-22]
- inhibition at 25 ppm [2]: ≥ 50%

SMILES: COc1ccc(Cn2c(=O)c(/C(C)=N/OC(C)C)cn(CC(O)c3cc(F)ccc3OC)c2=O)cc1 [D-52]
- inhibition at 25 ppm [2]: ≥ 50%

SMILES: COc1cccc(Cn2c(=O)c(/C(C)=N/OC(C)C)cn(CC(O)c3cc(F)ccc3OC)c2=O)c1 [D-53]
- inhibition at 25 ppm [2]: ≥ 50%

SMILES: COc1ccccc1Cn1c(=O)c(/C(C)=N/OC(C)C)cn(CC(O)c2cc(F)ccc2OC)c1=O [D-54]
- inhibition at 25 ppm [2]: ≥ 50%

SMILES: COc1ccc(F)cc1C(O)Cn1cc(/C(C)=N/OC(C)C)c(=O)n(Cc2ccccn2)c1=O [D-56]
- inhibition at 25 ppm [2]: ≥ 50%
